Measured values reported in patent publication US20210017174A1, “IDENTIFICATION AND USE OF ERK5 INHIBITOR” (Bayer Aktiengesellschaft, priority 2018, published 2021).

Assays:
[1] = target: T1, ERK5 (Homo sapiens, UniProt Q13164); experiment: TR-FRET-based Erk5 activity inhibition assay (biochemical assay ERK5); conditions: TR-FRET, 250 μM ATP, 1 μM substrate peptide, 60 min at 22° C.; read-out: IC50 value biochemiocal ERK5 asssay
T1 construct: host or cells: E. coli

[2] = system: SN12C-MEF2-luc (clone #37) reporter cell line; experiment: Luciferase reporter assay in SN12C-MEF2-luc cells (EGF-stimulated, MEF2-responsive luciferase); type: cell-based; conditions: Homo sapiens, 16 h compound incubation, then EGF 100 ng/ml for 2 h, ONE-Glo luminescence;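 also: serially diluted compounds at 37 °C, EGF with DMSO as maximum signal and EGF with a 10 µM reference inhibitor as minimum (full inhibition)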

T1 sequence (Q13164 1-398): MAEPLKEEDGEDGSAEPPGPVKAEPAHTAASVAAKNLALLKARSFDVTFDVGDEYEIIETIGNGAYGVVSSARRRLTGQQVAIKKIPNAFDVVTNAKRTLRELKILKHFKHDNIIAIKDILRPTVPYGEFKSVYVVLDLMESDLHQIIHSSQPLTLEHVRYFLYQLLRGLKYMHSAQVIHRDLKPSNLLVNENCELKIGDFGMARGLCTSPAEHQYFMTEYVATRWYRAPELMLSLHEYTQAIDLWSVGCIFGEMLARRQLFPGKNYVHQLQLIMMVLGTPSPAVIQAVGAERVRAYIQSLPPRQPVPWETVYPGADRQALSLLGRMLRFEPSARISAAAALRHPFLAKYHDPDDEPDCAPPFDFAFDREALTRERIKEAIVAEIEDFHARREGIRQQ

SMILES | IC50 [1] | IC50 [2]
COC1CCN(c2cnc3c(C4CCN(C(=O)c5ccc(OC(F)(F)F)cc5)CC4)ncnc3c2)CC1 [Example 79, {4-[7-(4-Methoxypiperidin-1-yl)pyrido[3,2-d]pyrimidin-4-yl]piperidin-1-yl}[4-(trifluoromethoxy)phenyl]methanone] | 49.9 nM | 122 nM
O=C(c1ccc(OC(F)(F)F)cc1)N1CCC(c2ncnc3cc(OC4CCOCC4)ccc23)CC1 [Example 49, {4-[7-(Tetrahydro-2H-pyran-4-yloxy)quinazolin-4-yl]piperidin-1-yl}[4-(trifluoromethoxy)phenyl]-methanone] | 145 nM | 352 nM
COc1cc2ncnc(C3CCN(C(=O)c4ccc(OC(F)(F)F)cc4F)CC3)c2cc1OC [Example 2, [4-(6,7-Dimethoxyquinazolin-4-yl)piperidin-1-yl][2-fluoro-4-(trifluoromethoxy)phenyl]methanone] | 93.1 nM | 935 nM
COc1ccc2c(C3CCN(C(=O)c4ccc(OC(F)(F)F)cc4NC(C)=O)CC3)ncnc2c1 [Example 67, N-[2-{[4-(7-Methoxyquinazolin-4-yl)piperidin-1-yl]carbonyl}-5-(trifluoro-methoxy)phenyl]acetamide] | 241 nM | 669 nM
COc1cc2ncnc(C3CCN(C(=O)c4ccc(OC(F)(F)F)c(F)c4)CC3)c2cc1OC [Example 22, [4-(6,7-Dimethoxyquinazolin-4-yl)piperidin-1-yl][3-fluoro-4-(trifluoromethoxy)phenyl]methanone] | 88.5 nM | 1230 nM
O=C(c1ccc(OC(F)(F)F)cc1)N1CCC(c2ncnc3cc(N4CCC(F)(F)CC4)cnc23)CC1 [Example 77, {4-[7-(4,4-Difluoropiperidin-1-yl)pyrido[3,2-d]pyrimidin-4-yl]piperidin-1-yl}[4-(trifluoromethoxy)phenyl]methanone] | 30.3 nM | 132 nM
O=C(c1ccc(OC(F)(F)F)cc1)N1CCC(c2ncnc3cc(-c4ccn[nH]4)ccc23)CC1 [Example 53, {4-[7-(1H-Pyrazol-5-yl)quinazolin-4-yl]piperidin-1-yl}[4-(trifluoromethoxy)-phenyl]methanone] | 78.1 nM | 627 nM
CC1(C)CN(c2cnc3c(C4CCN(C(=O)c5ccc(OC(F)(F)F)cc5)CC4)ncnc3c2)CCO1 [Example 78, {4-[7-(2,2-Dimethylmorpholin-4-yl)pyrido[3,2-d]pyrimidin-4-yl]piperidin-1-yl}[4-(trifluoromethoxy)phenyl]methanone] | 36.3 nM | 103 nM
O=C(c1ccc(OC(F)(F)F)cc1)N1CCC(c2ncnc3cc(N4CCCC4=O)ccc23)CC1 [Example 54, 1-(4-{1-[4-(Trifluoromethoxy)benzoyl]piperidin-4-yl}quinazolin-7-yl)pyrrolidin-2-one] | 190 nM | 942 nM
O=C(c1ccc(OC(F)(F)F)cc1)N1CCC(c2ncnc3cc(C4=CCOCC4)ccc23)CC1 [Example 52, {4-[7-(3,6-Dihydro-2H-pyran-4-yl)quinazolin-4-yl]piperidin-1-yl}[4-(trifluoro-methoxy)phenyl]-methanone] | 24.7 nM | 500 nM
C=CCOc1ccc(C(=O)N2CCC(c3ncnc4cc(OC)c(OC)cc34)CC2)cc1 [Example 27, [4-(6,7-Dimethoxyquinazolin-4-yl)piperidin-1-yl][4-(prop-2-en-1-yloxy)phenyl]-methanone] | 401 nM | 4910 nM
O=C(c1ccc(OC(F)(F)F)cc1)N1CCC(c2ncnc3cc(OCC(F)F)ccc23)CC1 [Example 64, {4-[7-(2,2-Difluoroethoxy)quinazolin-4-yl]piperidin-1-yl}[4-(trifluoromethoxy)-phenyl]methanone] | 89.8 nM | 694 nM
O=C(c1ccc(OC(F)(F)F)cc1)N1CCC(c2ncnc3cc(C4CC4)ccc23)CC1 [Example 51, [4-(7-Cyclopropylquinazolin-4-yl)piperidin-1-yl][4-(trifluoromethoxy)phenyl]-methanone] | 43 nM | 594 nM
COC(=O)c1ccc2c(C3CCN(C(=O)c4ccc(OC(F)(F)F)cc4)CC3)ncnc2c1 [Example 31, Methyl 4-{1-[4-(trifluoromethoxy)benzoyl]piperidin-4-yl}quinazoline-7-carboxylate] | 579 nM | 14600 nM
CC1(N)CCN(c2cnc3c(C4CCN(C(=O)c5ccc(OC(F)(F)F)cc5)CC4)ncnc3c2)CC1 [Example 73, {4-[7-(4-Amino-4-methylpiperidin-1-yl)pyrido[3,2-d]pyrimidin-4-yl]piperidin-1-yl}[4-(trifluoromethoxy)phenyl]methanone] | 39.1 nM | 253 nM
CN1CCC(Nc2cnc3c(C4CCN(C(=O)c5ccc(OC(F)(F)F)cc5)CC4)ncnc3c2)CC1 [Example 71, (4-{7-[(1-Methylpiperidin-4-yl)amino]pyrido[3,2-d]pyrimidin-4-yl}piperidin-1-yl)[4-(trifluoromethoxy)phenyl]methanone] | 153 nM | 436 nM
O=C(c1ccc(OC(F)(F)F)cc1)N1CCC(c2ncnc3cc(OCCO)ccc23)CC1 [Example 47, {4-[7-(2-Hydroxyethoxy)quinazolin-4-yl]piperidin-1-yl}[4-(trifluoromethoxy)-phenyl]methanone] | 110 nM | 2450 nM
COc1cc2ncnc(C3CCN(C(=O)c4ccc(OC(C)(C)C)cc4)CC3)c2cc1OC [Example 25, (4-Tert-butoxyphenyl)[4-(6,7-dimethoxyquinazolin-4-yl)piperidin-1-yl]methanone] | 1030 nM | 6830 nM
COc1cc2ncnc(C3CCN(C(=O)c4ccc(COC(F)(F)F)cc4)CC3)c2cc1OC [Example 5, [4-(6,7-Dimethoxyquinazolin-4-yl)piperidin-1-yl]{4-[(trifluoromethoxy)methyl]phenyl}methanone] | 1140 nM | 11300 nM
CCCCOc1ccc(C(=O)N2CCC(c3ncnc4cc(OC)c(OC)cc34)CC2)cc1 [Example 17, (4-Butoxyphenyl)[4-(6,7-dimethoxyquinazolin-4-yl)piperidin-1-yl]methanone] | 111 nM | 13100 nM
CNC(=O)c1ccc2c(C3CCN(C(=O)c4ccc(OC(F)(F)F)cc4)CC3)ncnc2c1 [Example 41, N-Methyl-4-{1-[4-(trifluoromethoxy)benzoyl]piperidin-4-yl}quinazoline-7-carboxamide] | 1090 nM | 7040 nM
O=C(c1ccc(OC(F)(F)F)cc1)N1CCC(c2ncnc3cc(N4CCC(F)(F)C4)cnc23)CC1 [Example 72, {4-[7-(3,3-Difluoropyrrolidin-1-yl)pyrido[3,2-d]pyrimidin-4-yl]piperidin-1-yl}[4-(trifluoromethoxy)phenyl]methanone] | 69.3 nM | 415 nM
CN1CCN(c2cnc3c(C4CCN(C(=O)c5ccc(OC(F)(F)F)cc5N)CC4)ncnc3c2)CC1 [Example 81, [2-Amino-4-(trifluoromethoxy)phenyl]{4-[7-(4-methylpiperazin-1-yl)pyrido[3,2-d]pyrimidin-4-yl]piperidin-1-yl}methanone] | – | 115 nM
COc1cc2ncnc(C3CCN(C(=O)c4ccc(SC(F)(F)F)cc4)CC3)c2cc1OC [Example 16, [4-(6,7-Dimethoxyquinazolin-4-yl)piperidin-1-yl]{4-[(trifluoromethyl)sulfanyl]-phenyl}methanone] | 159 nM | 1720 nM
CC(=O)NCCOc1ccc2c(C3CCN(C(=O)c4ccc(OC(F)(F)F)cc4)CC3)ncnc2c1 [Example 50, N-{2-[(4-{1-[4-(Trifluoromethoxy)benzoyl]piperidin-4-yl}quinazolin-7-yl)oxy]ethyl}acetamide] | 167 nM | 387 nM
